Key:
[1] = test system: Sprague-Dawley rats, i.c.v. ouabain-induced hyperactivity; assay: Ouabain-induced hyperactivity; assay type: in vivo, rat; settings: acute; cariprazine 1.0 mg/kg i.p. aCSF vs. saline aCSF (no ouabain); P < 0.05
[2] = target: mouse D2R-long form (mD2LR) (Mus musculus, UniProt P61168); assay: cell-based
[3] = cited from earlier work
[4] = after an i.p. injection, ref [1976]

mouse D2R-long form (mD2LR), sequence (P61168 whole entry): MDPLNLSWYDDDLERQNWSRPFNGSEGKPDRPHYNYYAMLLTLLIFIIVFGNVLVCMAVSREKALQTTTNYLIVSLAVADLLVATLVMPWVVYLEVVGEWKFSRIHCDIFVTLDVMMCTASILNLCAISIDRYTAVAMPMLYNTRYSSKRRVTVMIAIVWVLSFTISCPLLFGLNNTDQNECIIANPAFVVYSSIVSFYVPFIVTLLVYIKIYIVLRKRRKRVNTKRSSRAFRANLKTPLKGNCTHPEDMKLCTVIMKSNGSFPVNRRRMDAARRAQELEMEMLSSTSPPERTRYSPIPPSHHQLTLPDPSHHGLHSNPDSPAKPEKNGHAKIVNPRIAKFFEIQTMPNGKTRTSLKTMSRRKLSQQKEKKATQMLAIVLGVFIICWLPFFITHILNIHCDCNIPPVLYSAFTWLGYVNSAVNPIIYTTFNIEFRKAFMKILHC

EC50 [2] [nM]	Structure (SMILES)	sedation: inhibition of open field activity [1] [%]	lithium levels achieved in the rats ([3]; 6.75 mEq/kg i.p. then 2.4 g/kg of food for 7 days, ref [2003]) [mmol/L]	time to maximum brain levels [3, 4] [h]	time to maximum serum level [3, 4] [h]
1.4 ± 0.1	CN(C)C(=O)N[C@H]1CC[C@H](CCN2CCN(c3cccc(Cl)c3Cl)CC2)CC1 [Cariprazine]	72			
	[Li] [lithium]		1.01 ± 0.18	≤ 8	≤ 0.5
